# Key:
# [1] = test system: A. baumannii ATCC 12457; experiment: microbe, parasite or virus in culture
# [2] = test system: A. baumannii ATCC 19606; experiment: microbe, parasite or virus in culture
# How it was run: (§1)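 Interaction of robenidine with PMBN was quantified by checkerboard MICs after 24 h at 37°C in LB broth, using visual and 600 nm absorbance reading; results given as FICI and dose reduction index.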
# [3] = test system: A. calcoaceticus (human clinical isolate); experiment: microbe, parasite or virus in culture
# How it was run: as §1
# [4] = test system: E. coli ATCC 25922; experiment: microbe, parasite or virus in culture
# How it was run: as §1
# [5] = test system: K. pneumoniae ATCC 13883; experiment: microbe, parasite or virus in culture
# How it was run: as §1
# [6] = test system: P. mirabilis ATCC 43071; experiment: microbe, parasite or virus in culture
# How it was run: as §1
# [7] = test system: P. putida ATCC 17428; experiment: microbe, parasite or virus in culture
# How it was run: as §1
# [8] = test system: P. aeruginosa PA01; experiment: MIC broth microdilution and checkerboard; assay type: cell-based, Pseudomonas aeruginosa
# Method: (§2) The MIC for ampicillin or gentamicin against each isolate was determined for each test to serve as an internal quality control. The MICs of isolates were determined by visual reading and using an EnSpire Multimode Plate Reader 2300 atA600nm.
# (§3) Briefly, antimicrobial stock solutions for robenidine and PMBN were prepared at a concentration of 12.8 mg/ml in DMSO. […] A 1 μl aliquot of the first compound from each combination was dispensed along the abscissa (from row A to G) of the 96-well microplate, while the second compound was dispensed along the ordinate (from column 12 to column 3) using an electronic multichannel pipette followed by 89 μl of LB broth. Each well of the plate was inoculated with an aliquot of 10 μl bacterial suspension at a concentration of 1-5 × 10^6 colony forming units (CFU) per ml. Subsequently, the plate was incubated at 37°C for 24 h. The fractional inhibitory concentration index (FICI) described the results of the combinations, and was calculated utilizing the following formula:
# (§4) DRI = MIC of drug alone/MIC of drug in combination
# [9] = test system: P. aeruginosa (n = 30) clinical isolates from otitis externa cases in dogs; experiment: MIC/MBC and checkerboard, canine otitis externa isolates; assay type: cell-based, Pseudomonas aeruginosa
# Description: (§5) Escherichia coli ATCC 25922, E. coli ATCC 11229, P. aeruginosa ATCC 27853, P. aeruginosa PA01, Pseudomonas putida ATCC 17428, P. mirabilis ATCC 43071, K. pneumoniae ATCC 13883, A. baumannii ATCC 19606, and A. baumannii ATCC 12457 were used for preliminary susceptibility testing and combination experiments. S. aureus ATCC 29213 and S. pneumoniae ATCC 49619 were used as internal quality controls. A variety of bacterial organisms from both human and canine infections were investigated in this study (n = 119 isolates in total). Twenty-eight clinical Acinetobacter spp. isolates were obtained from cases of human skin and soft tissue infections, including 18 Acinetobacter baumannii and 10 A. calcoaceticus, kindly provided by a person (Institute of Medical and Veterinary Science, South Australia). […] Ninety-one clinical isolates were obtained from cases of canine otitis externa, including seven methicillin-susceptible S. pseudintermedius (MSSP), 13 multidrug- and methicillin-resistant S. pseudintermedius (MRSP) ([Saputra et al., 2017]), 20 beta-haemolytic Streptococcus spp., 30 P. aeruginosa (10 of them resistant to gentamicin and 21 P. mirabilis isolates). These isolates were obtained from the bacterial collection of the national survey of antimicrobial resistance in animals conducted in Australia. Swab samples from dogs with signs of otitis externa were collected by veterinarians and submitted to government, private or university diagnostic laboratories throughout Australia. After routine bacterial identification and the removal of confidential information, the participating veterinary diagnostic laboratories submitted the bacteria and their clinical information to PC2 Laboratories, Australian Centre for Antimicrobial Resistance Ecology, School of Animal and Veterinary Sciences, University of Adelaide, Roseworthy Campus, Roseworthy, SA, Australia, for further study. Thus, animal ethics approval was not required in this study. These organisms were identified to species level using biochemical testing and MALDI-TOF mass spectrometry (Bruker, Preston, VIC, Australia).
# as §2
# (§6) Briefly, 10 μl aliquots from each duplicate well from the MIC assays (starting from the MIC for each compound) were inoculated onto a sheep blood agar (SBA) plate and incubated at 37°C.
# as §3, §4
# [10] = test system: S. pseudintermedius (n = 20) clinical isolates from otitis externa cases in dogs; experiment: as above; assay type: cell-based, Staphylococcus pseudintermedius
# Description: as §5, §2, §6, §3, §4
# [11] = test system: Beta-haemolytic streptococci (n = 20) clinical isolates from otitis externa cases in dogs; experiment: as above; assay type: cell-based, beta-haemolytic Streptococcus spp.
# Description: as §5, §2, §6, §3, §4
# [12] = A. baumannii ATCC 12457, concentration of the labelled component
# [13] = A. baumannii ATCC 19606, concentration of the labelled component
# [14] = A. calcoaceticus human clinical isolate, concentration of the labelled component
# [15] = E. coli ATCC 25922, concentration of the labelled component
# [16] = K. pneumoniae ATCC 13883, concentration of the labelled component
# [17] = P. putida ATCC 17428, concentration of the labelled component
# [18] = concentration of the labelled component
compound,measurement,setting,value
"N=C(N/N=C/c1ccc(Cl)cc1)N/N=C/c1ccc(Cl)cc1 [ROB, robenidine]",DRI EDTA:ROB,"[1]; A. baumannii ATCC 12457, DRI of the labelled component",32
same,MIC in combination EDTA:ROB,[1]; [12],2 µg/mL
same,MIC in combination PMBN:ROB,[1]; [12],2 µg/mL
same,MIC,"[1]; Acinetobacter baumannii, ATCC12457, read-out: MIC, single drug",64 µg/mL
same,DRI EDTA:ROB,"[2]; A. baumannii ATCC 19606, DRI of the labelled component",8
same,MIC in combination EDTA:ROB,[2]; [13],4 µg/mL
same,MIC in combination PMBN:ROB,[2]; [13],2 µg/mL
same,MIC,"[2]; Acinetobacter baumannii, ATCC19606, read-out: MIC, single drug",32 µg/mL
same,DRI EDTA:ROB,"[3]; A. calcoaceticus human clinical isolate, DRI of the labelled component",32
same,MIC in combination EDTA:ROB,[3]; [14],0.125 µg/mL
same,MIC in combination PMBN:ROB,[3]; [14],0.5 µg/mL
same,MIC,"[3]; Acinetobacter calcoaceticus, read-out: MIC, single drug",4 µg/mL
same,"MIC, single drug",[4]; E. coli ATCC 25922,>256 µg/mL
same,DRI EDTA:ROB,"[4]; E. coli ATCC 25922, DRI of the labelled component",64
same,MIC in combination EDTA:ROB,[4]; [15],4 µg/mL
same,MIC in combination PMBN:ROB,[4]; [15],8 µg/mL
same,MIC,"[4]; Escherichia coli, ATCC25922, read-out: MIC, single drug",> 256 µg/mL
same,"MIC, single drug",[5]; K. pneumoniae ATCC 13883,>256 µg/mL
same,DRI EDTA:ROB,"[5]; K. pneumoniae ATCC 13883, DRI of the labelled component",2
same,MIC in combination EDTA:ROB,[5]; [16],128 µg/mL
same,MIC in combination PMBN:ROB,[5]; [16],4 µg/mL
same,MIC,"[5]; Klebsiella pneumoniae, ATCC13883, read-out: MIC, single drug",> 256 µg/mL
same,"MIC, single drug",[6]; P. mirabilis ATCC 43071,>256 µg/mL
same,DRI EDTA:ROB,"[6]; P. mirabilis ATCC 43071, DRI of the labelled component",256
same,MIC in combination EDTA:ROB,"[6]; P. mirabilis ATCC 43071, concentration of the labelled component",1.25 µg/mL
same,MIC,"[6]; Proteus mirabilis, ATCC43071, read-out: MIC, single drug",> 256 µg/mL
same,DRI EDTA:ROB,"[7]; P. putida ATCC 17428, DRI of the labelled component",256
same,MIC in combination EDTA:ROB,[7]; [17],1.25 µg/mL
same,MIC in combination PMBN:ROB,[7]; [17],1:1 μg/ml
same,MIC,"[7]; Pseudomonas putida, ATCC17428, read-out: MIC, single drug",> 256 µg/mL
same,DRI EDTA:ROB,[8]; DRI of the labelled component,256
same,MIC,"[8]; Pseudomonas aeruginosa, read-out: MIC, single drug",> 256 µg/mL
same,MIC in combination EDTA:ROB,[8]; [18],1.25 µg/mL
same,"MBC/MIC, ROB in combination with EDTA",[9],≥2
same,MIC50,"[9]; Pseudomonas aeruginosa, canine otitis externa, read-out: MIC50, single drug",> 256 µg/mL
same,MIC90,"[9]; Pseudomonas aeruginosa, canine otitis externa, read-out: MIC90, single drug",> 256 µg/mL
same,"MIC range, single drug",[9]; canine otitis externa,>256 µg/mL
same,"MIC50, in combination of EDTA and ROB",[9]; [18],0.25 µg/mL
same,"MIC90, in combination of EDTA and ROB",[9]; [18],2 µg/mL
same,"MIC range, in combination of EDTA and ROB",[9]; [18],0.125 to 4 µg/mL
same,"MBC/MIC, ROB in combination with EDTA",[10],2
same,MIC50,"[10]; Staphylococcus pseudintermedius, canine otitis externa, read-out: MIC50, single drug",2 µg/mL
same,MIC90,"[10]; Staphylococcus pseudintermedius, canine otitis externa, read-out: MIC90, single drug",2 µg/mL
same,"MIC range, single drug",[10]; canine otitis externa,1 to 4 µg/mL
same,"MIC50, in combination of EDTA and ROB",[10]; [18],1 µg/mL
same,"MIC90, in combination of EDTA and ROB",[10]; [18],1 µg/mL
same,"MIC range, in combination of EDTA and ROB",[10]; [18],0.25 to 2 µg/mL
same,"MBC/MIC, single drug",[10]; footnote for BS not shown,1.5
same,"MBC/MIC, ROB in combination with EDTA",[11],2
same,MIC50,"[11]; Streptococcus, canine otitis externa, read-out: MIC50, single drug",8 µg/mL
same,MIC90,"[11]; Streptococcus, canine otitis externa, read-out: MIC90, single drug",8 µg/mL
same,"MIC range, single drug",[11]; canine otitis externa,4 to 16 µg/mL
same,"MIC50, in combination of EDTA and ROB",[11]; [18],2 µg/mL
same,"MIC90, in combination of EDTA and ROB",[11]; [18],4 µg/mL
same,"MIC range, in combination of EDTA and ROB",[11]; [18],1 to 8 µg/mL
same,"MBC/MIC, single drug",[11]; footnote for BS not shown,1.75

# Source: paper PMC6494957 (Frontiers in Microbiology, 2019)
